According to article PMC10215302 (Antibiotics, 2023):
Values after ≈ are worked out from the molar mass of the structure shown. Like-named read-outs stand apart in the source and are kept apart here.

What was measured:
[1] = system: S. aureus ATCC 29213; test: microbe, parasite or virus in culture; conditions: Staphylococcus aureus
[2] = system: S. aureus SA0077; test: microbe, parasite or virus in culture; conditions: Staphylococcus aureus
[3] = system: S. aureus SA0736; test: microbe, parasite or virus in culture; conditions: Staphylococcus aureus
[4] = system: S. aureus SA0422; test: microbe, parasite or virus in culture; conditions: Staphylococcus aureus
[5] = system: S. aureus SA0085; test: microbe, parasite or virus in culture; conditions: Staphylococcus aureus, SA0085, read-out: MIC values
[6] = system: S. aureus SA0422
[7] = system: S. aureus RN4220
[8] = system: S. aureus ATCC 29213
[9] = system: S. aureus SA0077
[10] = system: S. aureus SA0736
[11] = system: S. aureus SA0085
[12] = ATCC29213, read-out: MIC values
[13] = SA0077, read-out: MIC values, Table S1: SA0077 VAN (derivative after 40 passages on vancomycin)
[14] = SA0736, read-out: MIC values, Table S1: SA0736 DAP-W (40 passages on daptomycin, white colonies)
[15] = SA0736, read-out: MIC values, Table S1: SA0736 VAN (derivative after 40 passages on vancomycin)
[16] = ATCC29213, read-out: MIC values, Table S1: ATCC 29213 DAP (derivative after 40 passages on daptomycin)
[17] = SA0422, read-out: MIC values, Table S1: SA0422 VAN (derivative after 40 passages on vancomycin)

COc1c(N2C[C@@H]3CCCN[C@@H]3C2)c(F)cc2c(=O)c(C(=O)O)cn(C3CC3)c12 [Moxifloxacin]
MIC [1, 12]: 0.125 µg/mL (≈ 0.311 µM) | MIC ([2]; SA0077, read-out: MIC values): 2 µg/mL (≈ 4.98 µM) | MIC [2, 13]: 4 µg/mL (≈ 9.96 µM) | MIC ([3]; SA0736, read-out: MIC values): 2 µg/mL (≈ 4.98 µM) | MIC [3, 14]: 4 µg/mL (≈ 9.96 µM) | MIC [3, 15]: 4 µg/mL (≈ 9.96 µM) | MIC ([4]; SA0422, read-out: MIC values): 2 µg/mL (≈ 4.98 µM) | MIC [5]: 8 µg/mL (≈ 19.9 µM)

CO[C@H]1/C=C/O[C@@]2(C)Oc3c(C)c(O)c4c(O)c(c(/C=N/N5CCN(C)CC5)c(O)c4c3C2=O)NC(=O)/C(C)=C\C=C\[C@H](C)[C@H](O)[C@@H](C)[C@@H](O)[C@@H](C)[C@H](OC(C)=O)[C@@H]1C [Rifampicin]
MIC [1, 12]: 0.004 µg/mL (≈ 0.00486 µM) | MIC ([2]; SA0077, read-out: MIC values): 0.004 µg/mL (≈ 0.00486 µM) | MIC ([3]; SA0736, read-out: MIC values): 0.004 µg/mL (≈ 0.00486 µM) | MIC [3, 15]: 0.016 µg/mL (≈ 0.0194 µM) | MIC ([4]; SA0422, read-out: MIC values): 0.004 µg/mL (≈ 0.00486 µM) | MIC [5]: > 4 µg/mL

CC[C@H]1OC(=O)[C@H](C)[C@@H](O[C@H]2C[C@@](C)(OC)[C@@H](O)[C@H](C)O2)[C@H](C)[C@@H](O[C@@H]2O[C@H](C)C[C@H](N(C)C)[C@H]2O)[C@](C)(O)C[C@@H](C)C(=O)[C@H](C)[C@@H](O)[C@]1(C)O [Erythromycin]
MIC [1, 12]: 0.25 µg/mL (≈ 0.341 µM) | MIC [1, 16]: 0.125 µg/mL (≈ 0.17 µM) | MIC ([1]; ATCC29213, read-out: MIC values, Table S1: ATCC 29213 VAN (derivative after 40 passages on vancomycin)): 0.5 µg/mL (≈ 0.681 µM) | MIC ([2]; SA0077, read-out: MIC values): > 128 µg/mL | MIC ([3]; SA0736, read-out: MIC values): 0.125 µg/mL (≈ 0.17 µM) | MIC [3, 15]: 0.5 µg/mL (≈ 0.681 µM) | MIC ([4]; SA0422, read-out: MIC values): 0.125 µg/mL (≈ 0.17 µM) | MIC [4, 17]: 0.5 µg/mL (≈ 0.681 µM) | MIC [5]: > 128 µg/mL

oritavancin
MIC ([6]; SA0422, selecting agent DAP, passage 5): 0.125 µg/mL | MIC ([6]; SA0422, selecting agent DAP, passage 20): 0.5 µg/mL | MIC ([6]; SA0422, selecting agent DAP, passage 40): 0.5 µg/mL | MIC ([6]; SA0422, selecting agent VAN, passage 0): <0.03 µg/mL | MIC ([6]; SA0422, selecting agent VAN, passage 5): 0.06 µg/mL | MIC ([6]; SA0422, selecting agent VAN, passage 20): 0.25 µg/mL | MIC ([6]; SA0422, selecting agent VAN, passage 40): 0.5 µg/mL | MIC values ([7]; Table S1: RN4220 WT): 0.016 µg/mL | MIC values ([7]; Table S1: RN4220 ∆ (strain with deletion in SACOL1927)): 0.016 µg/mL | MIC ([8]; ATCC 29213, selecting agent DAP, passage 5): 0.06 µg/mL | MIC ([8]; ATCC 29213, selecting agent DAP, passage 20): 0.125 µg/mL | MIC ([8]; ATCC 29213, selecting agent DAP, passage 40): 2 µg/mL | MIC ([8]; ATCC 29213, selecting agent VAN, passage 0): 0.06 µg/mL | MIC ([8]; ATCC 29213, selecting agent VAN, passage 5): 0.06 µg/mL | MIC ([8]; ATCC 29213, selecting agent VAN, passage 20): 0.06 µg/mL | MIC ([8]; ATCC 29213, selecting agent VAN, passage 40): 4 µg/mL | MIC ([9]; SA0077, selecting agent DAP, passage 5): 2 µg/mL | MIC ([9]; SA0077, selecting agent DAP, passage 20): 4 µg/mL | MIC ([9]; SA0077, selecting agent DAP, passage 40): 4 µg/mL | MIC ([9]; SA0077, selecting agent VAN, passage 0): <0.03 µg/mL | MIC ([9]; SA0077, selecting agent VAN, passage 5): 0.125 µg/mL | MIC ([9]; SA0077, selecting agent VAN, passage 20): 2 µg/mL | MIC ([9]; SA0077, selecting agent VAN, passage 40): 2 µg/mL | MIC values ([9]; Table S1: SA0077 Abf (passages on antibiotic-free media)): 0.06 µg/mL | MIC ([10]; SA0736, selecting agent DAP, passage 5): <0.03 µg/mL | MIC ([10]; SA0736, selecting agent DAP, passage 20): 2 µg/mL | MIC ([10]; SA0736, selecting agent DAP, passage 40Y (yellow colonies)): 4 µg/mL | MIC ([10]; SA0736, selecting agent VAN, passage 0): <0.03 µg/mL | MIC ([10]; SA0736, selecting agent VAN, passage 5): 0.25 µg/mL | MIC ([10]; SA0736, selecting agent VAN, passage 20): 2 µg/mL | MIC ([10]; SA0736, selecting agent VAN, passage 40): 2 µg/mL | MIC values ([10]; Table S1: SA0736 DAP-W (40 passages on daptomycin, white colonies)): 4 µg/mL | MIC values ([10]; Table S1: SA0736 DAP-Y (40 passages on daptomycin, yellow colonies)): 4 µg/mL | MIC ([11]; SA0085, selecting agent DAP, passage 5): <0.03 µg/mL | MIC ([11]; SA0085, selecting agent DAP, passage 20): 0.06 µg/mL | MIC ([11]; SA0085, selecting agent DAP, passage 40): 1 µg/mL | MIC ([11]; SA0085, selecting agent VAN, passage 0): <0.03 µg/mL | MIC ([11]; SA0085, selecting agent VAN, passage 5): 0.06 µg/mL | MIC ([11]; SA0085, selecting agent VAN, passage 20): 2 µg/mL | MIC ([11]; SA0085, selecting agent VAN, passage 40): 1 µg/mL | MIC values ([11]; Table S1: SA0085 Abf (passages on antibiotic-free media)): < 0.03 µg/mL

C/C(=C\C(=O)OCCCCCCCCC(=O)O)C[C@@H]1OC[C@H](C[C@@H]2O[C@H]2[C@@H](C)[C@H](C)O)[C@@H](O)[C@H]1O [Mupirocin]
MIC [1, 12]: 1 µg/mL (≈ 2 µM) | MIC ([2]; SA0077, read-out: MIC values): 0.5 µg/mL (≈ 0.999 µM) | MIC ([2]; SA0077, read-out: MIC values, Table S1: SA0077 Abf (passages on antibiotic-free media)): 1 µg/mL (≈ 2 µM) | MIC [2, 13]: 1 µg/mL (≈ 2 µM) | MIC ([3]; SA0736, read-out: MIC values): 1 µg/mL (≈ 2 µM) | MIC [3, 14]: 0.5 µg/mL (≈ 0.999 µM) | MIC ([4]; SA0422, read-out: MIC values): 1 µg/mL (≈ 2 µM) | MIC [5]: 1 µg/mL (≈ 2 µM)

CC(=O)O[C@H]1C[C@@]2(C)[C@@H](C[C@@H](O)[C@H]3[C@@]4(C)CC[C@@H](O)[C@@H](C)[C@@H]4CC[C@@]32C)/C1=C(\CCC=C(C)C)C(=O)O [Fusidic acid]
MIC [1, 12]: 0.25 µg/mL (≈ 0.484 µM) | MIC [1, 16]: 0.125 µg/mL (≈ 0.242 µM) | MIC ([2]; SA0077, read-out: MIC values): 0.06 µg/mL (≈ 0.116 µM) | MIC ([3]; SA0736, read-out: MIC values): 0.06 µg/mL (≈ 0.116 µM) | MIC [3, 15]: 0.125 µg/mL (≈ 0.242 µM) | MIC ([4]; SA0422, read-out: MIC values): 0.125 µg/mL (≈ 0.242 µM) | MIC ([4]; SA0422, read-out: MIC values, Table S1: SA0422 DAP (derivative after 40 passages on daptomycin)): 0.06 µg/mL (≈ 0.116 µM) | MIC [4, 17]: 0.06 µg/mL (≈ 0.116 µM) | MIC [5]: 0.125 µg/mL (≈ 0.242 µM)
